Counter-ions that a name gives are not always drawn.

Broadly, the IC50 is the midpoint of a concentration-inhibition curve.

The first assay has as its system human primary T-cells, IL-2 stimulated proliferation (JAK-1 and JAK-3 dependent; reported as JAK3 activity). The experiment in a line: Human primary T-cell proliferation stimulated by IL-2 (Example 3). Format: cell-based. The following applies: Homo sapiens, T-cell, tested under conditions described in Example 3 (IL-2 stimulated human primary T-cell proliferation); read-out: ability to inhibit JAK3 activity, IC50 range (Table V). Put shortly:
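Peripheral-blood human T-cells pre-activated via TCR/CD28, IL-2-starved overnight, then cultured 72 h at 37 °C with compound in Yssel's medium containing IL-2 (80 U/mL in cell suspension). Proliferation read as viable-cell ATP by CellTiter-Glo luminescence; reduction versus control taken as JAK pathway inhibition.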
Consider `CCN(CC)C1CCN(C2CCCCc3ccc(Nc4ncc(C)c(Nc5ccc6oc(=O)[nH]c6c5)n4)cc32)C1` (stereo not shown) [IV-13, 5-{2-[9-(3-Diethylamino-pyrrolidin-1-yl)-6,7,8,9-tetrahydro-5H-benzocyclohepten-2-ylamino]-5-methyl-pyrimidin-4-ylamino}-3H-benzooxazol-2-one], for which the IC50 was in the range of 500 to 5000 nM. Still for that read-out and setting: under `COc1cc(Nc2ncc(C)c(Nc3ccc4oc(=O)[nH]c4c3)n2)ccc1Cl` [Compound I-181, 5-[2-(4-Chloro-3-methoxy-phenylamino)-5-methyl-pyrimidin-4-ylamino]-3H-benzooxazol-2-one] stands less than 500 nM; under `COc1cc(Nc2ncc(C)c(Nc3ccc4oc(=O)[nH]c4c3)n2)c(F)cc1F` [Compound I-193, 5-[2-(2,4-Difluoro-5-methoxy-phenylamino)-5-methyl-pyrimidin-4-ylamino]-3H-benzooxazol-2-one], 500 to 5000 nM; under `Cc1cc(N2CCN(C)CC2)ncc1Nc1ncc(C)c(Nc2ccc3oc(=O)[nH]c3c2)n1` [II-143, N2-[4-methyl-2-(4-methylpiperazino)pyridin-5-yl]-5-methyl-N4-(2-oxo-2,3-dihydro-1,3-benzoxazol-5-yl)-2,4-pyrimidinediamine], 500 to 5000 nM. On to `CCN1CC2CN(c3ncc(Nc4ncc(C)c(Nc5ccc6oc(=O)[nH]c6c5)n4)cc3C(F)(F)F)CC2C1` (stereo not shown) [II-119, N2-[2-(3-ethyl-3,7-diazabicyclo[3.3.0]octan-7-yl)-3-trifluoromethylpyridin-5-yl]-5-methyl-N4-(2-oxo-2,3-dihydro-1,3-benzoxazol-5-yl)-2,4-pyrimidinediamine], for which the IC50 is less than 500 nM. Still for that read-out and setting: under `Cc1cnc(Nc2ccc(N3CCC4CCC3N4C)cc2)nc1Nc1ccc2oc(=O)[nH]c2c1` (stereo not shown) [Compound I-123, N4-(benzo[d]oxazol-2(3H)-on-5-yl)-N2-(4-(8-methyl-2,8-diazabicyclo[3.2.1]octan-2-yl)phenyl)-5-methylpyrimidine-2,4-diamine] stands less than 500 nM; under `Cc1cnc(Nc2ccc3[nH]nc(C)c3c2)nc1Nc1ccc2oc(=O)[nH]c2c1` [IV-49, 5-methyl-N2-(3-methylindazol-5-yl)-N4-(2-oxo-2,3-dihydro-1,3-benzoxazol-5-yl)-2,4-pyrimidinediamine], less than 500 nM; under `Cc1cnc(Nc2ccc(OC(F)(F)F)cc2)nc1Nc1ccc2oc(=O)[nH]c2c1` [Compound I-108, N4-(benzoxazolin-2-on-5-yl)-N2-(4-trifluoromethoxyphenyl)-5-methylpyrimidine-2,4-diamine trifluoroacetate salt], less than 500 nM.

With `Cc1cnc(Nc2ccc(N3CCN(CC4CC4)[C@H](C)C3)nc2)nc1Nc1ccc2oc(=O)[nH]c2c1` [II-56, (R)-5-(2-(6-(4-(cyclopropylmethyl)-3-methylpiperazin-1-yl)pyridin-3-ylamino)-5-methylpyrimidin-4-ylamino)benzo[d]oxazol-2(3H)-one], the IC50 was less than 500 nM. In the case of `Cc1cnc(Nc2ccc(C#N)cc2)nc1Nc1ccc2oc(=O)[nH]c2c1` [Compound I-27, N4-(benzo[d]oxazol-2(3H)-on-5-yl)-N2-(4-cyanophenyl)-5-methylpyrimidine-2,4-diamine], the IC50 is less than 500 nM. Consider `Cc1cnc(Nc2ccc3oc(=O)[nH]c3c2)nc1Nc1ccc2oc(=O)[nH]c2c1` [IV-22, 5,5′-(5-methylpyrimidine-2,4-diyl)bis(azanediyl)dibenzo[d]oxazol-2(3H)-one], for which the IC50 was less than 500 nM. As to `Cc1cnc(Nc2cccc(S(=O)(=O)C3CCCC3)c2)nc1Nc1ccc2oc(=O)[nH]c2c1` [Compound I-157, 5-[2-(3-Cyclopentanesulfonyl-phenylamino)-5-methyl-pyrimidin-4-ylamino]-3H-benzooxazol-2-one], the IC50 was less than 500 nM. On the same count and under the same terms, to `Cc1cnc(Nc2ccc(OCCN3CCOCC3)cc2)nc1Nc1ccc2oc(=O)[nH]c2c1` [Compound I-192, 5-{5-Methyl-2-[4-(2-morpholin-4-yl-ethoxy)-phenylamino]-pyrimidin-4-ylamino}-3H-benzooxazol-2-one] belongs less than 500 nM; to `Cc1cnc(Nc2ccc(N3CCC4(CCN(C)C4)C3)nc2)nc1Nc1ccc2oc(=O)[nH]c2c1` (stereo not shown) [II-133, 5-methyl-N2-[2-(7-methyl-2,7-diazaspiro[4.4]nonan-2-yl)pyridin-5-yl]-N4-(2-oxo-2,3-dihydro-1,3-benzoxazol-5-yl)-2,4-pyrimidinediamine], less than 500 nM. `Cc1cnc(Nc2ccc(NS(C)(=O)=O)cc2)nc1Nc1ccc2[nH]c(=O)[nH]c2c1` [Compound I-50, N2-(4-(methylsulfonylamino)phenyl)-N4-(1H-benzo[d]imidazol-2(3H)-on-5-yl)-5-methylpyrimidine-2,4-diamine]: the IC50 was less than 500 nM.

Consider `Cc1cnc(Nc2cc(C(C)NC3CC3)cc(C(F)(F)F)c2)nc1Nc1ccc2oc(=O)[nH]c2c1` (stereo not shown) [Compound I-461, 5-(2-(3-(1-(cyclopropylamino)ethyl)-5-(trifluoromethyl)phenylamino)-5-methylpyrimidin-4-ylamino)benzo[d]oxazol-2(3H)-one], for which the IC50 was less than 500 nM.

The same assay, now with this note: tested under conditions described in Example 3 (IL-2 stimulated human primary T-cell proliferation); read-out: ability to inhibit JAK3 activity, IC50 range (Table V).
As for `Cc1cnc(Nc2cccc(S(C)(=O)=O)c2)nc1Nc1ccc2[nH]c(=O)oc2c1` [Compound I-100, N2-((3-methylsulfonyl)phenyl)-N4-(2-oxo-2,3-dihydrobenzo[d]oxazol-6-yl)-5-methylpyrimidine-2,4-diamine], the IC50 was less than 500 nM. The same measure, in the same setting: to `CCNC(=O)Nc1ccc(Nc2ncc(C)c(Nc3ccc4oc(=O)[nH]c4c3)n2)cc1` [Compound I-318, N2-[4-(ethylaminocarbonylamino)]phenyl-5-methyl-N4-(2-oxo-2,3-dihydro-1,3-benzoxazol-5-yl)-2,4-pyrimidinediamine] belongs less than 500 nM; to `Cc1cnc(Nc2ccncc2F)nc1Nc1ccc2oc(=O)[nH]c2c1` [IV-63, N2-(3-fluoropyridin-4-yl)-5-methyl-N4-(2-oxo-2,3-dihydro-1,3-benzoxazol-5-yl)-2,4-pyrimidinediamine], 5000 to 10000 nM; to `Cc1cnc(Nc2cnc(N3CCN4CCC[C@H]4C3)c(F)c2)nc1Nc1ccc2oc(=O)[nH]c2c1` [II-112, N4-(benzo[d]oxazolin-2(3H)-one-5-yl)-N2-{2-[(8S)-1,4-diazabicyclo[4.3.0]nonane-1-yl]-3-fluoropyridine-5-yl}-5-methyl-2,4-pyrimidinediamine], less than 500 nM.

`Cc1cnc(Nc2ccc(F)c(NS(C)(=O)=O)c2)nc1Nc1ccc2oc(=O)n(C)c2c1` [Compound I-88, N2-((4-fluoro-3-methylsulfonylamino)phenyl)-N4-(3-methyl-2-oxo-2,3-dihydrobenzo[d]oxazol-5-yl)-5-methylpyrimidine-2,4-diamine]: the concentration for half-maximal inhibition (IC50) is less than 500 nM. Consider `Cc1cnc(Nc2ccc(N3CCC(F)(F)CC3)c(Cl)c2)nc1Nc1ccc2oc(=O)[nH]c2c1` [Compound I-277, N2-[3-chloro-4-(4,4-difluoropiperidinyl)]phenyl-5-methyl-N4-(2-oxo-2,3-dihydro-1,3-benzoxazol-5-yl)-2,4-pyrimidinediamine], for which the IC50 was less than 500 nM. Same read-out and setting: to `Cc1cnc(Nc2ccc(F)c(OC(C)(C)C#N)c2)nc1Nc1ccc2oc(=O)[nH]c2c1` [Compound I-417, N2-[3-(1-cyano-1-methyl)ethoxy-4-fluoro]phenyl-5-methyl-N4-(2-oxo-2,3-dihydro-1,3-benzoxazol-5-yl)-2,4-pyrimidinediamine] belongs less than 500 nM; to `Cc1cnc(Nc2ccc(C(=O)N3CCN(C)CC3)cc2)nc1Nc1ccc2oc(=O)[nH]c2c1` [Compound I-322, 5-methyl-N2-[4-(4-methylpiperazin-1-yl)carbonyl]phenyl-N4-(2-oxo-2,3-dihydro-1,3-benzoxazol-5-yl)-2,4-pyrimidinediamine], less than 500 nM. The same measure, in the same setting: to `CS(=O)(=O)Nc1ccc(Nc2ncc(F)c(Nc3ccc4oc(=O)[nH]c4c3)n2)cc1` [Compound I-53] belongs less than 500 nM; to `Cc1cnc(Nc2ccc(S(=O)(=O)C(F)(F)F)cc2)nc1Nc1ccc2oc(=O)[nH]c2c1` [Compound I-117, N4-(benzo[d]oxazol-2(3H)-on-5-yl)-N2-(4-trifluoromethylsulfonyl)phenyl-5-methylpyrimidine-2,4-diamine], less than 500 nM; to `Cc1cnc(Nc2cccc(NS(C)(=O)=O)c2)nc1Nc1ccc2oc(=O)[nH]c2c1` [Compound I-55, N4-(benzo[d]oxazol-2(3H)-on-5-yl)-N2-(3-methylsulfonylamino)phenyl)-5-methylpyrimidine-2,4-diamine formate salt], less than 500 nM.

As to `Cc1cnc(Nc2cc(F)cc(OC(C)(C)C#N)c2)nc1Nc1ccc2oc(=O)[nH]c2c1` [Compound I-416, N2-[3-(1-cyano-1-methyl)ethoxy-5-fluoro]phenyl-5-methyl-N4-(2-oxo-2,3-dihydro-1,3-benzoxazol-5-yl)-2,4-pyrimidinediamine], the IC50 was less than 500 nM.

`Cc1cnc(Nc2ccc3c(n2)NC(=O)CO3)nc1Nc1ccc2oc(=O)[nH]c2c1` [IV-47, 5-methyl-N4-(2-oxo-2,3-dihydro-1,3-benzoxazol-5-yl)-N2-(2H-pyrido[3,2-b][1,4]oxazin-3 (4H)-one-6-yl)-2,4-pyrimidinediamine]: the IC50 is more than 10000 nM. Same read-out and setting: to `CN1CCN(c2ccc(Nc3ncc(F)c(Nc4ccc5[nH]c(=O)[nH]c5c4)n3)cn2)CC1` [II-16, N4-(benzimidazolin-2-on-5-yl)-N2-[2-(4-methylpiperazin-1-yl)pyridin-5-yl]-5-fluoropyrimidine-2,4-diamine] belongs less than 500 nM; to `Cn1c(=O)n(C)c2cc(Nc3nc(Nc4cccc(NS(C)(=O)=O)c4)ncc3F)ccc21` [Compound I-42, N4-(1,3-dimethylbenzimidazolin-2-on-5-yl)-N2-((3-methylsulfonylamino)phenyl)-5-fluoropyrimidine-2,4-diamine], 500 to 5000 nM.
